Data as given in PMC7508162 (Frontiers in Pharmacology, 2020).

Tests used:
human CD38 = molecular target: T1, human CD38 (Homo sapiens, UniProt P28907); test: CD38 assay; format: biochemical; settings: analogous to NPP3 and NPP5 assays; for Ki: read-out: Ki ± SEM
T1 construct: the catalytic domains of the enzymes were amplified and sub-cloned into the expression vector pACGP67 A/B; 9xHis (C); made in house; host or cells: Sf9 insect cells (baculovirus, pACGP67 A/B)
T1 sequence (P28907 43-300 limits assumed): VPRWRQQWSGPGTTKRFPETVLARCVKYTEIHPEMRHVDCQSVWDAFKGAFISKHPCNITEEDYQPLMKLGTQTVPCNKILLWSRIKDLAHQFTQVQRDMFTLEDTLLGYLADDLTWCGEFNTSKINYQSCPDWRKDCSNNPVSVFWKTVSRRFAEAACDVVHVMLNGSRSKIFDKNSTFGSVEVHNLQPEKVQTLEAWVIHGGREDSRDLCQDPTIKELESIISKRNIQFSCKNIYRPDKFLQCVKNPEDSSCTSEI
Description: (§1) The cDNAs of the human enzymes NPP1, NPP3, NPP5, CD38 and CD73 (Genbank accession no. NM_006258, NM_005021, NM_021572, NM_ 001775, and NM_002526, respectively) were obtained from Origene (Rockville, USA). Soluble enzymes were produced as previously reported with some modifications ([Lee et al., 2015]; [Junker et al., 2019]). Briefly, the catalytic domains of the enzymes were amplified and sub-cloned into the expression vector pACGP67 A/B modified with the addition of 9 x histidine tag (His-tag) at the C-terminus (except for NPP1). The plasmids were transfected in Sf9 insect cells using Cellfectin™ II Reagent (Thermo Fisher Scientific, MA, USA) and ProEasy™ baculovirus linearized DNA (Cat.#A10S, AB Vector, LLC). Protein expression was conducted for 48 h at 27°C. The signal peptide sequence of the expression vector shuttled the proteins into the supernatant. The supernatant medium was collected, and the enzymes were purified using HisPur™ Ni^2+-NTA spin columns according to the manufacturer’s protocol. The protein concentration was determined by the method previously described by [Lowry et al. (1951)].
The assay operation was analogous to the NPP3 and NPP5 assays. The enzymatic reactions were performed in 10 mM HEPES reaction buffer (pH 7.2) using 8 ng of human CD38 (expressed in Sf9 insect cells) in analogy to a published procedure ([Blacher et al., 2015]).

[1] = Metabolic stability in mouse liver microsomes; format: in vitro ADME; settings: both sexes; mouse liver microsomes 0.5 mg/mL; compound 1 μM
Protocol: The experiments were performed by Pharmacelsus, Saarbrücken, Germany (https://www.pharmacelsus.com/services/in-vitro-adme/) using human and mouse liver microsomes (0.5 mg/mL, mixed gender, pooled). Compounds were tested at a concentration of 1 μM. Data points represent means of two separate experiments performed in duplicates.

[2] = Chemical stability of stock solutions by LC/ESI-MS analysis; format: physicochemical
Protocol: To ensure that degradation was caused by microsomal enzymes and not due to chemical instability, stock solutions were analyzed by LC/ESI-MS analysis, and were in all cases found to be stable. […] Nevertheless, they represent useful tool compounds for in vitro studies.

human NPP3 = molecular target: T2, human NPP3 (Homo sapiens, UniProt O14638); test: NPP3 assay with ϵ-NAD+ as substrate; format: biochemical; settings: for inhibition at 10 µM: 10 µM test compound; for Ki: 20 µM ϵ-NAD+, read-out: Ki ± SEM
T2 construct: the catalytic domains of the enzymes were amplified and sub-cloned into the expression vector pACGP67 A/B; 9xHis (C); made in house; host or cells: Sf9 insect cells (baculovirus, pACGP67 A/B)
T2 sequence (O14638 31-875 limits assumed): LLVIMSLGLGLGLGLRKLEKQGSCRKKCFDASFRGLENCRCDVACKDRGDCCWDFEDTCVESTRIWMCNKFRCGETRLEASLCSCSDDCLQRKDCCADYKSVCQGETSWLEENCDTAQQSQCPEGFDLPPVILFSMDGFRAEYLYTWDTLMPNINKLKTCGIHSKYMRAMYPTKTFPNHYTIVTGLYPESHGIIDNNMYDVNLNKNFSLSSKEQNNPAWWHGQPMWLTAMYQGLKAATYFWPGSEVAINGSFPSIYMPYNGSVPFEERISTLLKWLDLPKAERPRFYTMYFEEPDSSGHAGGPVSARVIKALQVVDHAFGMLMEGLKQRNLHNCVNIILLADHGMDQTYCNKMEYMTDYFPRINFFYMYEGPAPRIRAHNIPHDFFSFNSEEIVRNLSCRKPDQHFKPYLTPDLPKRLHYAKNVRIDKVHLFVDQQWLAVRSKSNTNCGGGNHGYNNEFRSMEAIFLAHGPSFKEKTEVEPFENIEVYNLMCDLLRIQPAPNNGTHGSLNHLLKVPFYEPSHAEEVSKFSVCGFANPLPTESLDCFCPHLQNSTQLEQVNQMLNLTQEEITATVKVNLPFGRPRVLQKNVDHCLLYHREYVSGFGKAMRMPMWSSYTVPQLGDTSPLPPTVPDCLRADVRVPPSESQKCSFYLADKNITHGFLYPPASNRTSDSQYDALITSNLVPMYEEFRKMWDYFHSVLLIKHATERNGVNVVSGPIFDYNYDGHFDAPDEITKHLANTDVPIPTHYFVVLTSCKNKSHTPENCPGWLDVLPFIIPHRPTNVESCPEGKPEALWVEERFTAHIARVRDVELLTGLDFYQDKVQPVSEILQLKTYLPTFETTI
Description: as §1
The assays were performed in analogy to published procedures ([Blacher et al., 2015]). The enzymatic activity of human NPP3 and NPP5 (soluble forms expressed in insect cells and purified as previously described ([Lee et al., 2015]; [Lopez et al., 2020]) was measured using 1,N^6-etheno-nicotinamide adenine dinucleotide (ϵ-NAD^+) as a substrate, which is hydrolyzed to fluorescent 1,N^6-etheno-AMP (ϵ-AMP). The enzymatic reactions were performed in reaction buffer [10 mM N-cyclohexyl-2-aminoethanesulfonic acid (CHES), 2 mM CaCl2, and 1 mM MgCl2, pH 9.0 in H2O]. Purified NPP3 (90 ng) or NPP5 (400 ng), 20 µM of ϵ-NAD^+ and 10 µM of the test compound were incubated for 30 min at 37°C. The relative fluorescence at 270 nm excitation and 420 nm emission was detected by a fluorescence microplate reader (Flexstation, Medical Devices LLC. USA, Softmax Pro software to collect the data).

SMILES | % inhibition (human CD38) | Ki (human CD38) | half-life at 1 μM [1] | stability of stock solutions [2] | inhibition at 10 µM (human NPP3) | Ki (human NPP3)
CCCCNc1nc2c(NC)ncnc2n1[C@@H]1O[C@H](COP(=O)(O)OP(=O)(O)C(Br)(Br)P(=O)(O)O)[C@@H](O)[C@H]1O [Compound 33, (Dibromo((((((2R,3S,4R,5R)-5-(8-(butylamino)-6-(methylamino)-9H-purin-9-yl)-3,4-dihydroxy-tetrahydrofuran-2-yl)methoxy)(hydroxy)phosphoryl)oxy)-(hydroxy)phosphoryl)methyl)-phosphonic Acid] | 6% | > 10 µM | < 1 min | stable | 8% | > 10 µM
CCCCSc1nc2c(N)ncnc2n1[C@@H]1O[C@H](COP(=O)(O)OP(=O)(O)C(Br)(Br)P(=O)(O)O)[C@@H](O)[C@H]1O [Compound 31, (((((((2R,3S,4R,5R)-5-(6-Amino-8-(butylthio)-9H-purin-9-yl)-3,4-dihydroxytetrahydrofuran-2-yl)methoxy)(hydroxy)-phosphoryl)oxy)(hydroxy)phosphoryl)dibromomethyl)-phosphonic Acid] | 7% | > 10 µM | < 1 min | stable | 8% | > 10 µM
CCN(CC)c1ncnc2c1ncn2[C@@H]1O[C@H](COP(=O)(O)OP(=O)(O)C(Br)(Br)P(=O)(O)O)[C@@H](O)[C@H]1O [ARL67156, (Dibromo((((((2R,3S,4R,5R)-5-(6-(diethylamino)-9H-purin-9-yl)-3,4-dihydroxytetrahydrofuran-2-yl)methoxy)-(hydroxy)-phosphoryl)oxy)(hydroxy)phosphoryl)methyl)-phosphonic Acid, reference compound] | 0% | > 10 µM | < 1 min | stable | 13% | > 10 µM
